According to patent US10501455B2, “Inhibitors of leukotriene A4 hydrolase” (Celtaxsys, Inc., priority 2013, dated 2019):

Assays:
[1] = target: T1, LTA4-h (Homo sapiens, UniProt P09960); assay: Peptidase (aminopeptidase) assay; format: biochemical; settings: for inhibition at 3 µM: read-out: Peptidase % inhibition
T1 sequence (P09960 1-611): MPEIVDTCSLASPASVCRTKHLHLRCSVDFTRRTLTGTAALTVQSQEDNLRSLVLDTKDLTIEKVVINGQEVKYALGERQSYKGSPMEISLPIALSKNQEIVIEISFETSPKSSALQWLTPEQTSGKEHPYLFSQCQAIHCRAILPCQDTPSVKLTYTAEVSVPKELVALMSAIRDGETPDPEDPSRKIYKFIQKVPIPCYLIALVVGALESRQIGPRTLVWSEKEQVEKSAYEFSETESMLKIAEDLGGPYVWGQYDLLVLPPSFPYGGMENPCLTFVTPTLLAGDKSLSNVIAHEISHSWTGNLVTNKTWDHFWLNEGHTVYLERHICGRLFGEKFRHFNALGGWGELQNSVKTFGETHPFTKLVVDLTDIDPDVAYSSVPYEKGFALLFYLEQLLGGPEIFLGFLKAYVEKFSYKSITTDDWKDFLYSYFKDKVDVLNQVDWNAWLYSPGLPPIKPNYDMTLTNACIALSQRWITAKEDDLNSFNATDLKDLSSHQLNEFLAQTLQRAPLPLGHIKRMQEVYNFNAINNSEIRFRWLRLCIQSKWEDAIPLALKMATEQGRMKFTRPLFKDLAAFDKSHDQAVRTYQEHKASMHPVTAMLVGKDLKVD
Description: Since LTA4-h hydrolase is grouped with the M1 family of zinc metalloproteases (see, Rudberg, P. C. et al., J. Biol. […] The whole blood and aminopeptidase assays were performed as described in Penning et al., J. Med.

[2] = target: T1, LTA4-h; assay: Hydrolase assay (hydrolase-homogeneous time resolved fluorescence, LTB4 produced); format: biochemical
From the text: The compounds of the invention can be tested for their ability to inhibit LTA4-h by various known assays and by assays described herein. For example, the compounds can be tested for their ability to inhibit LTA4-h activity by assaying the compounds in the hydrolase-homogeneous time resolved fluoroescence assay. This assay, which is a two-step assay, measures the hydrolysis of […] to LTB4 by analyzing the amount of LTB4 produced. The first step involves the enzymatic conversion of […] to LTB4 and the second step involves the quantification of the […] with a homogeneous time resolved fluoroescence assay.
(§1) The whole blood and aminopeptidase assays were performed as described in Penning et al., J. Med. Chem. 2000, 43, 721-735, and Rudberg et al., J. Biol. Chem. Vol. 279, No. 26, Issue of June 25, pp. 27376-27382, 2004, the contents of each of which are expressly incorporated by reference herein. The hydrolase assay was performed as described in U.S. Pat. No. 7,737,145, the contents of which are expressly incorporated herein.

[3] = target: T2, LTA4-h hydrolase (Homo sapiens, UniProt P09960); assay: Whole blood assay (WBA); format: cell-based
T2 construct: endogenous in cells; host or cells: whole blood
T2 sequence (P09960 1-611): T1 sequence (P09960 1-611)
Description: as §1, with “Compounds of the invention can also be tested for their ability as inhibitors of LTA4-h hydrolase in the whole blood assay using human, mouse, rat or dog whole blood (see Penning, T. D. et al., J. Med. Chem. (2000), 43(4): 721-735 for a description of a human whole blood assay and a mouse whole blood assay, the contents of which are expressly incorporated herein). […] The whole” for “The whole”

Row | IC50 [1] [nM] | IC50 [2] [nM] | IC50 [3] [nM] | Compound | further results
1 | 45 | 26 | 510 | Clc1ccc(Oc2ccc(NCC3CCNC3)cc2)cc1 (stereo not shown) [Compound 1] | 
2 | 72 | 190 | 880 | Clc1ccc(Oc2ccc(NCC3CCCCN3)cc2)cc1 (stereo not shown) [Compound 2] | 
3 | 88 | 300 | > 3000 | O=C(O)c1ccc(CN2CCC(CN(Cc3ccc(C(=O)O)cc3)c3ccc(Oc4ccc(Cl)cc4)cc3)C2)cc1 (stereo not shown) [Compound 3] | 
4 | 1.7 | 7.9 | 90 | Clc1ccc(Oc2ccc(NCC3CNC3)cc2)cc1 [Compound 4] | 
5 | 31 | 300 | 920 | Clc1ccc(Oc2ccc(NC3CNC3)cc2)cc1 [Compound 5] | 
6 | 160 | 360 | 1900 | Clc1ccc(Oc2ccc(NC3CC4CCC(C3)N4)cc2)cc1 (stereo not shown) [Compound 6] | 
7 | 4 | 5 | 57 | O=C(O)c1ccc(CN2CC(Nc3ccc(Oc4ccc(Cl)cc4)cc3)C2)cc1 [Compound 7] | 
8 |  |  |  | COC(=O)c1ccc(CN(CC2CCN(C(=O)OC(C)(C)C)C2)c2ccc(Oc3ccc(Cl)cc3)cc2)cc1 (stereo not shown) [Compound 9] | inhibition at 3 µM ([1]; at 3 uM): 56%
9 | 13 | 22 | 260 | COC(=O)c1ccc(CN(CC2CCNC2)c2ccc(Oc3ccc(Cl)cc3)cc2)cc1 (stereo not shown) [Compound 10] | 
10 | 140 | 70 | 670 | O=C(O)c1ccc(CN(CC2CCNC2)c2ccc(Oc3ccc(Cl)cc3)cc2)cc1 (stereo not shown) [Compound 11] | 
11 | 150 | 70 | 240 | COC(=O)c1ccc(CN(CC2CCN(C)C2)c2ccc(Oc3ccc(Cl)cc3)cc2)cc1 (stereo not shown) [Compound 12] | 
12 | 100 |  | 2770 | COC(=O)c1ccc(CN(CC2CCN(Cc3ccc(F)cc3)C2)c2ccc(Oc3ccc(Cl)cc3)cc2)cc1 (stereo not shown) [Compound 13] | 
13 | 200 |  |  | COC(=O)c1ccc(CN(CC2CCN(Cc3ccccc3)C2)c2ccc(Oc3ccc(Cl)cc3)cc2)cc1 (stereo not shown) [Compound 14] | 
14 | 290 | 470 | 560 | CN1CCC(CN(Cc2ccc(C(=O)O)cc2)c2ccc(Oc3ccc(Cl)cc3)cc2)C1 (stereo not shown) [Compound 15] | 
15 | 1600 | 2200 |  | O=C(O)c1ccc(CN(CC2CCN(Cc3ccc(F)cc3)C2)c2ccc(Oc3ccc(Cl)cc3)cc2)cc1 (stereo not shown) [Compound 16] | 
16 | 1500 |  |  | O=C(O)c1ccc(CN(CC2CCN(Cc3ccccc3)C2)c2ccc(Oc3ccc(Cl)cc3)cc2)cc1 (stereo not shown) [Compound 17] | 
17 |  |  |  | CC(C)(C)OC(=O)N1CCC(CN(Cc2ccccc2)c2ccc(Oc3ccc(Cl)cc3)cc2)C1 (stereo not shown) [Compound 18] | inhibition at 3 µM ([1]; at 3 uM): 0%
18 |  |  |  | CC(C)(C)OC(=O)N1CCC(CN(Cc2ccc(F)cc2)c2ccc(Oc3ccc(Cl)cc3)cc2)C1 (stereo not shown) [Compound 19] | inhibition at 3 µM ([1]; at 3 uM): 47%
19 | 165 | 140 | 950 | CN1CCC(CN(Cc2ccc(F)cc2)c2ccc(Oc3ccc(Cl)cc3)cc2)C1 (stereo not shown) [Compound 20] | 
20 |  |  |  | COC(=O)c1ccc(CN2CCC(CN(Cc3ccc(F)cc3)c3ccc(Oc4ccc(Cl)cc4)cc3)C2)cc1 (stereo not shown) [Compound 22] | inhibition at 3 µM ([1]; at 3 uM): 59%
21 |  |  |  | COC(=O)c1ccc(CN2CCC(CN(Cc3ccccc3)c3ccc(Oc4ccc(Cl)cc4)cc3)C2)cc1 (stereo not shown) [Compound 23] | inhibition at 3 µM ([1]; at 3 uM): 40%

Row | IC50 [1] [nM] | IC50 [2] [nM] | IC50 [3] [nM] | Compound | further results
22 | 530 | 870 |  | O=C(O)c1ccc(CN2CCC(CN(Cc3ccc(F)cc3)c3ccc(Oc4ccc(Cl)cc4)cc3)C2)cc1 (stereo not shown) [Compound 24] | 
23 | 370 | 1550 | 520 | O=C(O)c1ccc(CN2CCC(CN(Cc3ccccc3)c3ccc(Oc4ccc(Cl)cc4)cc3)C2)cc1 (stereo not shown) [Compound 25] | 
24 |  |  |  | COC(=O)c1ccc(CN(CC2CN(C(=O)OC(C)(C)C)C2)c2ccc(Oc3ccc(Cl)cc3)cc2)cc1 [Compound 26] | inhibition at 3 µM ([1]; at 3 uM): 42%
25 |  |  |  | CC(C)(C)OC(=O)CN(CC1CCN(C(=O)OC(C)(C)C)C1)c1ccc(Oc2ccc(Cl)cc2)cc1 (stereo not shown) [Compound 27] | inhibition at 3 µM ([1]; at 3 uM): 7%
26 | 46 | 170 | 800 | COC(=O)c1ccc(CN(CC2CNC2)c2ccc(Oc3ccc(Cl)cc3)cc2)cc1 [Compound 28] | 
27 | 22 | 320 | 920 | O=C(O)CN(CC1CCNC1)c1ccc(Oc2ccc(Cl)cc2)cc1 (stereo not shown) [Compound 29] | 
28 | 240 | 1000 | 1600 | O=C(O)c1ccc(CN(CC2CNC2)c2ccc(Oc3ccc(Cl)cc3)cc2)cc1 [Compound 30] | 
29 | 76 |  |  | COC(=O)c1cccc(CN(CC2CN(C(=O)OC(C)(C)C)C2)c2ccc(Oc3ccc(Cl)cc3)cc2)c1 [Compound 31] | inhibition at 3 µM ([2]; at 3 uM): > 5%
30 | 12 | 1300 | 2800 | CC(C)(C)OC(=O)N1CCC(CN(Cc2ccc(S(N)(=O)=O)cc2)c2ccc(Oc3ccc(Cl)cc3)cc2)C1 (stereo not shown) [Compound 32] | 
31 |  |  |  | COC(=O)c1cccc(CN(CC2CCN(C(=O)OC(C)(C)C)C2)c2ccc(Oc3ccc(Cl)cc3)cc2)c1 (stereo not shown) [Compound 33] | inhibition at 3 µM ([1]; at 3 uM): 22%
32 | 62 |  |  | COC(=O)c1cccc(CN(CC2CCNC2)c2ccc(Oc3ccc(Cl)cc3)cc2)c1 (stereo not shown) [Compound 34] | 
33 | 33 |  |  | COC(=O)c1cccc(CN(CC2CNC2)c2ccc(Oc3ccc(Cl)cc3)cc2)c1 [Compound 35] | 
34 | 60 | 12 |  | O=C(O)c1cccc(CN(CC2CCNC2)c2ccc(Oc3ccc(Cl)cc3)cc2)c1 (stereo not shown) [Compound 36] | 
35 | 35 | 62 |  | O=C(O)c1cccc(CN(CC2CNC2)c2ccc(Oc3ccc(Cl)cc3)cc2)c1 [Compound 37] | 
36 | 26 | 12 |  | NS(=O)(=O)c1ccc(CN(CC2CCNC2)c2ccc(Oc3ccc(Cl)cc3)cc2)cc1 (stereo not shown) [Compound 38] | 
37 |  |  |  | CC(C)(C)OC(=O)N1CCC(CN(Cc2ccc([N+](=O)[O-])cc2)c2ccc(Oc3ccc(Cl)cc3)cc2)C1 (stereo not shown) [Compound 39] | inhibition at 3 µM [1]: 19%
38 | 125 |  |  | COC(=O)c1coc(CN(CC2CCNC2)c2ccc(Oc3ccc(Cl)cc3)cc2)n1 (stereo not shown) [Compound 40] | 
39 | 70 |  |  | Clc1ccc(Oc2ccc(NC[C@@H]3CCCN3)cc2)cc1 [Compound 42] | 
40 |  |  |  | CC(C)(C)OC(=O)N1CCC[C@H]1CN(Cc1ccc(S(N)(=O)=O)cc1)c1ccc(Oc2ccc(Cl)cc2)cc1 [Compound 43] | inhibition at 1 µM ([1]; at 1 uM): 0%
41 | 110 |  |  | NS(=O)(=O)c1ccc(CN(C[C@@H]2CCCN2)c2ccc(Oc3ccc(Cl)cc3)cc2)cc1 [Compound 44] | 
